What is called Km is the substrate concentration at which the rate is half of its maximum.

The assay deals with T1, PpUGT73CR1.
T1 construct: gene UGT73CR1; tag removal not mentioned
The assay is described as follows: HPLC quantification of product. It is filed as biochemical, Paris polyphylla var. yunnanensis. To be noted: 5 mM UDP-glucose, 50 mM Tris-HCl pH 8.0, 37 °C, 30 min, 20-400 µM acceptor. From the text:
HPLC quantification of product on PpUGT73CR1

`C[C@@H]1CC[C@@]2(OC1)O[C@H]1C[C@H]3[C@@H]4CC=C5C[C@@H](O)CC[C@]5(C)[C@H]4CC[C@]3(C)[C@H]1[C@@H]2C` [diosgenin]: the Km (product trillin) stood at 53.7 ± 9.37 µM.

As for `C[C@@H]1CC[C@@]2(OC1)O[C@H]1C[C@H]3[C@@H]4CC=C5C[C@@H](O)CC[C@]5(C)[C@H]4CC[C@]3(C)[C@@]1(O)[C@@H]2C` [pennogenin], where the note is “product floribundasaponin A”, the Michaelis constant (Km) was found to be 73.4 ± 8.16 µM.

The values are drawn from paper PMC8758714, “Effective prediction of biosynthetic pathway genes involved in bioactive polyphyllins in Paris polyphylla” (Communications Biology, 2022).
